Test results as given in paper PMC2667962 (Biochemistry, 2008).

Assays:
[1] = Formation of anhydrous cholesterol crystals seen by DSC
[2] = DSC of the phase transition of pure SOPC with peptide; conditions: cooling scans, SOPC without peptide 5 °C

| Substance | formation of cholesterol crystals ([1]; 6/4 ratio of SOPC/cholesterol) | formation of cholesterol crystals ([1]; mixtures with 30% cholesterol) | transition temperature of pure SOPC ([2]; 5 mol% peptide) | transition temperature of pure SOPC ([2]; 10 mol% peptide) | transition temperature of pure SOPC ([2]; 15 mol% peptide) | formation of anhydrous cholesterol crystals ([1]; any of the SOPC/cholesterol ratios) |
| --- | --- | --- | --- | --- | --- | --- |
| Ac-GWGIK-NH2 [GWGIK, N-acetyl-GWGIK-amide] | no formation of cholesterol crystals | small peak corresponding to cholesterol crystals | – | – | – | – |
| LWGIG | – | – | 4.7 °C | 4.7 °C | 4.5 °C | no formation of anhydrous cholesterol crystals |
